# Assay results from patent US7842808B2, “Anti-migraine spirocycles” (Bristol-Myers Squibb Company, priority 2002, dated 2010).
# Target: T1, CGRP receptor (SK-N-MC cell membranes) (Homo sapiens, UniProt O60894+Q16602)
# T1 construct: endogenous in cells; host or cells: SK-N-MC cells (membrane homogenate)
# Assay: CGRP Binding Assay ([125I]-CGRP radioligand binding, SK-N-MC homogenate)
# Conditions: displacement of [125I]-CGRP, SK-N-MC homogenate; read-out: CGRP binding IC50
# Protocol: Tissue Culture. SK-N-MC cells were grown at 37° C. in 5% CO2 as a monolayer in medium consisting of MEM with Earle's salts and L-glutamine (Gibco) supplemented with 10% fetal bovine serum (Gibco).
# Cell Pellets. […] The cells were transferred from plates to polypropylene tubes (16×100 mm) and homogenized using a polytron. Homogenates were centrifuged at 32,000×g for 30 min. The pellets were resuspended in cold hypotonic lysis buffer with 0.1% mammalian protease inhibitor cocktail (Sigma) and assayed for protein concentration. The SK-N-MC homogenate was then aliquoted and stored at −80° C. until needed.
# Radioligand Binding Assay. The compounds of invention were solubilized and carried through serial dilutions using 100% DMSO. Aliquots from the compound serial dilutions were further diluted 25 fold into assay buffer (50 mM Tris-Cl pH 7.5, 5 mM MgCl2, 0.005% Triton X-100) and transferred (volume 50 μl) into 96 well assay plates. […] SK-N-MC pellets were thawed, diluted in assay buffer with fresh 0.1% mammalian protease inhibitor cocktail (Sigma), and homogenized again. SK-N-MC homogenate (5 μg/well) was added in a volume of 100 μl. The assay plates were then incubated at room temperature for 2 h. Assays were stopped by addition of excess cold wash buffer (20 mM Tris-Cl pH 7.5, 0.1% BSA) immediately followed by filtration over glass fiber filters (Whatman GF/B) previously soaked in 0.5% PEI. Non-specific binding was defined with 1 μM beta-CGRP. Protein bound radioactivity was determined using a gamma or scintillation counter.
# T1 sequence (Q16602 23-461): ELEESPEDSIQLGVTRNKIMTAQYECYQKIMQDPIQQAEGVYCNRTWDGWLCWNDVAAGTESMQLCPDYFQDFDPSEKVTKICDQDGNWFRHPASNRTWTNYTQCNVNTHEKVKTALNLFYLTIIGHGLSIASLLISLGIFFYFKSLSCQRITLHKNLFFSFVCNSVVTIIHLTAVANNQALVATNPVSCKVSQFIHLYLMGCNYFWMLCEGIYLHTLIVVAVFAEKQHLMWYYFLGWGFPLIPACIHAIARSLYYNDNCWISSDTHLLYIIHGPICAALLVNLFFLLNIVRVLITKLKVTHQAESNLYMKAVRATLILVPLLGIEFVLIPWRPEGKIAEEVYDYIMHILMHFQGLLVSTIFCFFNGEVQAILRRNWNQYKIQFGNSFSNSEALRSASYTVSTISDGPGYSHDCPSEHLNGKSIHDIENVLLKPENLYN
# T1 sequence (O60894 27-148): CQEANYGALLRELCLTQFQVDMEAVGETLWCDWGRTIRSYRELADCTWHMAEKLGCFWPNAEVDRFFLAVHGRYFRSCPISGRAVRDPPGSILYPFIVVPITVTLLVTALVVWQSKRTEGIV
row,IC50 [nM],Compound
1,100 to 1000,CCc1cccc(NC(=O)N[C@@H](CC(=O)N2CCC(N3Cc4ccccc4NC3=O)CC2)C(=O)N2CCC(N3CCCCC3)CC2)c1 [Example 142]
2,100 to 1000,O=C(N[C@@H](CC(=O)N1CCC(N2Cc3ccccc3NC2=O)CC1)C(=O)N1CCC(N2CCCCC2)CC1)c1cc2ccccc2s1 [Example 126]
3,100 to 1000,O=C(N[C@@H](CC(=O)N1CCC(N2Cc3ccccc3NC2=O)CC1)C(=O)N1CCC(N2CCCCC2)CC1)c1cccc(Cl)c1 [Example 129]
4,100 to 1000,O=C(Nc1cccc2ccccc12)N[C@@H](CC(=O)N1CCC(N2Cc3ccccc3NC2=O)CC1)C(=O)N1CCC(N2CCCCC2)CC1 [Example 137]
5,10 to 100,O=C(Nc1ccc(Cl)cc1)N[C@@H](CC(=O)N1CCC(N2Cc3ccccc3NC2=O)CC1)C(=O)N1CCC(N2CCCCC2)CC1 [Example 140]
6,100 to 1000,O=C(N[C@@H](CC(=O)N1CCC(N2Cc3ccccc3NC2=O)CC1)C(=O)N1CCC(N2CCCCC2)CC1)[C@@H]1C[C@H]1c1ccccc1 [Example 104]
7,10 to 100,O=C(Nc1cccc(Cl)c1)N[C@@H](CC(=O)N1CCC(N2Cc3ccccc3NC2=O)CC1)C(=O)N1CCC(N2CCCCC2)CC1 [Example 178]
8,100 to 1000,O=C(NCCc1ccccc1)N[C@@H](CC(=O)N1CCC(N2Cc3ccccc3NC2=O)CC1)C(=O)N1CCC(N2CCCCC2)CC1 [Example 138]
9,100 to 1000,COc1ccc(NC(=O)N[C@@H](CC(=O)N2CCC(N3Cc4ccccc4NC3=O)CC2)C(=O)N2CCC(N3CCCCC3)CC2)c(OC)c1 [Example 155]
10,100 to 1000,Cc1ccc(C)c(NC(=O)N[C@@H](CC(=O)N2CCC(N3Cc4ccccc4NC3=O)CC2)C(=O)N2CCC(N3CCCCC3)CC2)c1 [Example 157]
11,100 to 1000,Cc1ccc(NC(=O)N[C@@H](CC(=O)N2CCC(N3Cc4ccccc4NC3=O)CC2)C(=O)N2CCC(N3CCCCC3)CC2)cc1Cl [Example 186]
12,100 to 1000,O=C(N[C@@H](CC(=O)N1CCC(N2Cc3ccccc3NC2=O)CC1)C(=O)N1CCC(N2CCCCC2)CC1)c1cc(Cl)cc(Cl)c1 [Example 108]
13,100 to 1000,CCOc1ccc(NC(=O)N[C@@H](CC(=O)N2CCC(N3Cc4ccccc4NC3=O)CC2)C(=O)N2CCC(N3CCCCC3)CC2)cc1 [Example 189]
14,100 to 1000,O=C(Nc1ccc(-c2ccccc2)cc1)N[C@@H](CC(=O)N1CCC(N2Cc3ccccc3NC2=O)CC1)C(=O)N1CCC(N2CCCCC2)CC1 [Example 144]
15,100 to 1000,O=C(Nc1ccccc1Oc1ccccc1)N[C@@H](CC(=O)N1CCC(N2Cc3ccccc3NC2=O)CC1)C(=O)N1CCC(N2CCCCC2)CC1 [Example 136]
16,100 to 1000,O=C(Cc1ccc(Cl)cc1)N[C@@H](CC(=O)N1CCC(N2Cc3ccccc3NC2=O)CC1)C(=O)N1CCC(N2CCCCC2)CC1 [Example 127]
17,100 to 1000,Cc1c(Cl)cccc1NC(=O)N[C@@H](CC(=O)N1CCC(N2Cc3ccccc3NC2=O)CC1)C(=O)N1CCC(N2CCCCC2)CC1 [Example 192]
18,100 to 1000,O=C(Nc1ccccc1-c1ccccc1)N[C@@H](CC(=O)N1CCC(N2Cc3ccccc3NC2=O)CC1)C(=O)N1CCC(N2CCCCC2)CC1 [Example 197]
19,100 to 1000,O=C(NCCc1cccs1)N[C@@H](CC(=O)N1CCC(N2Cc3ccccc3NC2=O)CC1)C(=O)N1CCC(N2CCCCC2)CC1 [Example 169]
20,100 to 1000,O=C(Nc1cc(Cl)nc(Cl)c1)N[C@@H](CC(=O)N1CCC(N2Cc3ccccc3NC2=O)CC1)C(=O)N1CCC(N2CCCCC2)CC1 [Example 164]

# Further lines, the compound ahead of its results:
row,Compound,IC50 [nM]
1,"Cc1cc(CC(NC(=O)N2CCC3(CC2)CC(=O)Nc2ccccc23)C(=O)N2CCCCC2)cc2cn[nH]c12 (racemic) [Example 32, (±)-1-(7-Methyl-1H-indazol-5-ylmethyl)-2-[1-piperidinyl]-2-oxoethyl]3′,4′-dihydro-2′-oxospiro-[piperidine-4,4′-(1H)-quinoline]-1-carboxamide]",100 to 1000
2,"COC(=O)C(Cc1cc(C)c2[nH]ncc2c1)NC(=O)N1CCC2(CC1)NC(=O)Nc1ccccc12 (stereo not drawn) [Example 13, 3-(7-Methyl-1H-indazol-5-yl)-2-[2′,3′-dihydro-2′-oxospiro-(piperidine-4,4′-(1H)-quinazoline)carbonylamino]-propionic acid methyl ester]",100 to 1000
3,"O=C(C[C@H](NC1CCC(O)CC1)C(=O)N1CCC(N2CCCCC2)CC1)N1CCC(N2Cc3ccccc3NC2=O)CC1 (stereo partly drawn) [Example 97, (L)-1-[1,4′]Bipiperidinyl-1′-yl-2-(4-hydroxy-cyclohexylamino)-4-[4-(2-oxo-1,4-dihydro-2H-quinazolin-3-yl)-piperidin-1-yl]-butane-1,4-dione]",> 1000
4,"Cc1cc(CC(NC(=O)N2CCC3(CC2)OC(=O)Nc2ccccc23)C(=O)N2CCN(c3ccncc3)CC2)cc2cn[nH]c12 (racemic) [Example 29, (±)-1′,2′-Dihydro-2′-oxospiro-[4H-3′,1-benzoxazine-4,4′-piperidine-1-carboxylic acid[1-(7-methyl-1H-indazol-5-ylmethyl)-2-oxo-2-(4-pyridin-4-yl-piperazin-1-yl)-ethyl]-amide]",< 10
5,CCCCN1CCN(C(=O)C(Cc2ccc3[nH]ncc3c2)NC(=O)N2CCC(N3Cc4ccccc4NC3=O)CC2)CC1 (stereo not drawn) [Example 40c],> 1000
6,O=C(N[C@@H](CC(=O)N1CCC(N2Cc3ccccc3NC2=O)CC1)C(=O)N1CCC(N2CCCCC2)CC1)Oc1ccc(Br)cc1 [Example 133],100 to 1000
7,O=C(C[C@H](NC(=O)n1c2ccccc2c2ccccc21)C(=O)N1CCC(N2CCCCC2)CC1)N1CCC(N2Cc3ccccc3NC2=O)CC1 [Example 115],100 to 1000
8,COc1cc(C(=O)N[C@@H](CC(=O)N2CCC(N3Cc4ccccc4NC3=O)CC2)C(=O)N2CCC(N3CCCCC3)CC2)cc(OC)c1OC [Example 128],100 to 1000
9,"Cc1nc(N[C@@H](CC(=O)N2CCC(N3Cc4ccccc4NC3=O)CC2)C(=O)N2CCC(N3CCCCC3)CC2)nc(N)c1N [Example 91, (L)-1-[1,4′]Bipiperidinyl-1′-yl-2-(4,5-diamino-6-methyl-pyrimidin-2-ylamino)-4-[4-(2-oxo-1,4-dihydro-2H-quinazolin-3-yl)-piperidin-1-yl]-butane-1,4-dione]",100 to 1000
10,CCOC(=O)C(C)NC(=O)N[C@@H](CC(=O)N1CCC(N2Cc3ccccc3NC2=O)CC1)C(=O)N1CCC(N2CCCCC2)CC1 (stereo partly drawn) [Example 170],100 to 1000
11,"O=C(NC(Cn1ccc(O)cc1=O)C(=O)N1CCC(N2CCCCC2)CC1)N1CCC(N2Cc3ccccc3NC2=O)CC1 (racemic) [Example 52, (±)-4-(2-Oxo-1,4-dihydro-2H-quinazolin-3-yl)-piperidine-1-carboxylic acid[2-[1,4′]bipiperidinyl-1′-yl-1-(4-hydroxy-2-oxo-2H-pyridin-1-ylmethyl)-2-oxo-ethyl]-amide]",> 1000
12,"COc1ccc(CC(NC(=O)N2CCC(N3Cc4ccccc4NC3=O)CC2)C(=O)N2CCC(N3CCCCC3)CC2)cn1 (racemic) [Example 57, (±)-4-(2-Oxo-1,4-dihydro-2H-quinazolin-3-yl)-piperidine-1-carboxylic acid[2-[1,4′]bipiperidinyl-1′-yl-1-(6-methoxy-pyridin-3-ylmethyl)-2-oxo-ethyl]-amide]",100 to 1000
13,"O=C(C[C@H](Nc1ccc2[nH]ncc2c1)C(=O)N1CCC(N2CCCCC2)CC1)N1CCC(N2Cc3ccccc3NC2=O)CC1 (racemic) [Example 201, (±)-1-[1,4′]Bipiperidinyl-1′-yl-2-(1H-indazol-5-ylamino)-4-[4-(2-oxo-1,4-dihydro-2H-quinazolin-3-yl)-piperidin-1-yl]-butane-1,4-dione]",100 to 1000
14,"Cc1nc(N[C@@H](CC(=O)N2CCC(N3Cc4ccccc4NC3=O)CC2)C(=O)N2CCC(N3CCCCC3)CC2)nc(N)c1[N+](=O)[O-] [Example 90, (L)-2-(4-Amino-6-methyl-5-nitro-pyrimidin-2-ylamino)-1-[1,4′]bipiperidinyl-1′-yl-4-[4-(2-oxo-1,4-dihydro-2H-quinazolin-3-yl)-piperidin-1-yl]-butane-1,4-dione]",10 to 100
15,CCCN1CCN(C(=O)C(Cc2ccc3[nH]ncc3c2)NC(=O)N2CCC(N3Cc4ccccc4NC3=O)CC2)CC1 (stereo not drawn) [Example 40d],100 to 1000
16,O=C(OCc1ccccc1C(=O)N[C@@H](CC(=O)N1CCC(N2Cc3ccccc3NC2=O)CC1)C(=O)N1CCC(N2CCCCC2)CC1)c1ccccc1 [Example 118],100 to 1000
17,CN1CCN(C(=O)C(Cc2ccc3[nH]ncc3c2)NC(=O)N2CCC(N3Cc4ccccc4NC3=O)CC2)CC1 (stereo not drawn) [Example 40k],> 1000
18,"Cc1cc(CC(NC(=O)N2CCC(N3Cc4ccccc4NC3=O)CC2)C(=O)OC2CCCCC2)cc2cn[nH]c12 (stereo not drawn) [Example 41a, 3-(7-Methyl-1H-indazol-5-yl)-2-{[4-(2-oxo-1,4-dihydro-2H-quinazolin-3-yl)-piperidine-1-carbonyl]-amino}-propionic acid cyclohexyl ester]",10 to 100
19,O=C(N[C@@H](CC(=O)N1CCC(N2Cc3ccccc3NC2=O)CC1)C(=O)N1CCC(N2CCCCC2)CC1)Oc1ccc(F)cc1 [Example 131],100 to 1000
